Measured values: patent US12496298B2, “Natural killer cells” (Imperial College Innovations Limited, priority 2017, dated 2025)

Tests used:
[1] = test system: mouse NK cell (NK1.1+CD3−) production from HPCs; experiment: In vitro development of NK cells from mouse HPCs (NK cell development assay, flow cytometry at Day 9); format: cell-based; conditions: for increase in NK cell production, rank among 2, 5, 10 and 20 μM: confirmation experiments (FIG. 4)
Description: FIG. 2: Timeline of NK cell development assay. HPCs were isolated and cultured plus FIt3L, IL-7 and SCF cytokines. At Day 2, they were then transferred onto OP9 stromal cells plus or minus drug in culture medium plus the IL-15 cytokine. The media of the cultures were changed at Day 5 and the cells were harvested and analysed at Day 9.
Lineage negative cells are enriched for Hematopoietic Progenitor Cells (HPCs). […] Cells were harvested on Day 9 and analysed using flow cytometry to determine the number of NK1.1^+CD3^− cells (FIG. 2). NK1.1^+ and CD3^− are two cell surface markers that can define mouse NK cells. OP9 stromal cells were readily excluded from the analysis, as the OP9 stromal cells used were GFP positive (FIG. 3B). Flow cytometry data were analysed as the fold increase, relative to the ‘No drug’ or untreated control in each experiment. This is because the absolute percentage of NK cell production varies between experiments.
Lineage negative HSCs were purified from mouse bone marrow by crushing the leg bones in Phosphate-buffered Saline (PBS) with 2% fetal calf serum (FCS) (STEMCELL Technologies), topped up to 40 ml with magnetic-activated cell sorting (MACS) buffer (PBS, 2 mM EDTA, 0.5% BSA, sterile and filtered) and centrifuged at 800 g for 2 minutes. The cells were resuspended in PE-conjugated cocktail, (20 μl of anti-B220 (RA3-6B2), anti-mouse CD2 (RM2-5, anti-Ter119 (TER119) and anti-NK.1.1 (PK136) and 5 μl of anti-CD11b (M1/70) and anti-GR-1 (RB6-8C5) antibodies (all from Bioscience)) incubated for 5 minutes at 4° C., centrifuged and resuspended in anti-PE microbeads for 15 minutes at 4° C. Cells were washed in MACS buffer and passed through MACS columns. This allowed negative selection of HPCs. Following lineage depletion, 50 μl of the cells was analysed using flow cytometry to check for purity.
The HPCs were plated and cultured in 24-well plates at a concentration of 5×10^5 HPCs/well in 1 ml of complete cytokine medium (Dulbecco's modified eagle medium (DMEM) (Sigma Aldrich), 10% FCS, 50 μM β-Mercaptoethanol, 10 ng/ml Flt3-ligand (FIt3L) (R&D Systems), 10 ng/ml IL-7 (R&D Systems), 100 ng/ml stem cell factor (SCF) (R&D Systems) and 1% P/S) for 2 days at 37° C., 5% CO2. The HPCs were then transferred onto OP9 cells at 4500 cells/well for 96-well plate experiments and 3×10^4 cells/well for 24-well plate experiments in mouse NK cells differentiation medium (Alpha-MEM (Sigma Aldrich) plus 20% FCS, 1% P/S and 30 ng/ml IL-15). Cells were left in culture at 37° C., 5% CO2 for 7 days with a change of mouse NK cells differentiation medium at day 3 or 4.
Cells to be analysed by flow cytometry were passed through 40 μm cell strainers to remove clumps and washed with PBS buffer, centrifuged at 800 g for 2 minutes and resuspended in 100 μl fluorescent activated cell sorting (FACS) buffer (PBS plus 1% BSA) with appropriate fluorochrome conjugated antibodies at a dilution of 1 in 300. Cells were stained with the following antibodies, all of which were anti-mouse and are from eBioscience unless specified: 2B4 (clone m2B4(B6) 458.1; BioLegend), CD2 (RM2-5), CD3 (17A2), CD11b (M1/70), CD19 (1D3), CD27 (LG.7F9), CD122 (TM-b1), CD127 (A7R34), B220 (RA3-6B2), ckit (ACK2), Flt3 (A2F10), Gr1 (RB6-8C5), NK1.1 (PK136), Sca1 (D7), Ter119 (TER119), NKp46 (29A1.4) anti-human CD45 (HI30), anti-human CD2 (RPA-2.10) and anti-human CD56 (CMSSB). The lineage cocktail contained B220, CD2, CD11b, Gr1, NK1.1, and Ter119. Cells were stained in the dark at 4° C. for 30 minutes and then washed with 2 ml FACS buffer, centrifuged and resuspend in 300 μl FACS buffer plus Propidium Iodide (PI) also at a dilution of 1 in 300. Flow cytometry was performed using LSRFortessa™ cell analyser (Becton Dickinson Bioscience), sorted using FACSAria (Becton Dickinson) as indicated and full data analysis was done using FlowJo Software.

Human CD34+ cells = experiment: Toxicity to human CD34+ cells in NK cell culture; format: cell-based
Description: The hypothesis that SR8278 increases NK cells production would not have any potential therapeutic value if it was not also true for human NK cell production. Therefore, the effect of SR8278 on human NK cell production from human HPCs was examined. Human HPCs were obtained as the CD34^+ population purified from umbilical cord blood from collaborators at the Anthony Nolan Research Institute, London. Human NK cell development goes through a similar developmental pathway to mouse NK cell development. […]
CD34^+ umbilical cord blood progenitor cells were provided by Anthony Nolan Research Institute, University College London. […] Cells were thawed, counted and then plated on EL08.1D2 plates prepared previously at a concentration of 1000 cells/well in human NK cells differentiation medium (Alpha-MEM plus 20% Human AB serum (Invitrogen), 50 μM β-Mercaptoethanol and 1% P/S along with 5 ng/ml human-IL-3 (Peprotech), 20 ng/ml human-IL-7 (Peprotech), 10 ng/ml human-Flt3-L (Peprotech), 20 ng/ml human-SCF (Peprotech) and 10 ng/ml human-IL-15 (Peprotech). Note that human-IL-3 is only needed for the first week of culture. Cells were left in the culture at 37° C., 5% CO2 for 14 or 16 days with a change of human NK differentiation medium at day 7 and 12.

For `CCOC(=O)C1Cc2ccccc2CN1C(=O)c1ccc(SC)s1` (stereo not shown) [SR8278, 1,2,3,4-Tetrahydro-2-[[5-(methylthio)-2-thienyl]carbonyl]-3-isoquinolinecarboxylic acid ethyl ester], the “NK cell production relative to 'No drug' control” value ([1]; 5 μM added at Day 0 (greatest effect)) was “over 1.4 fold”, the “increase in NK cell production, rank among 2, 5, 10 and 20 μM” value ([1]; 5 μM) was “followed by 5 μM” and the “NK cell production increase compared to 'No drug' control” value ([1]; 10 μM added Day 2, analysed Day 9, screen (FIG. 3)) was “over 2.4 fold”. The “increase in NK cell production relative to 'No drug' control” value ([1]; 10 μM added on Days 0, 1 and 2) was “over 1.6 fold”, the “increase in NK cell production, rank among 2, 5, 10 and 20 μM” value ([1]; 10 μM) was “highest increase in NK cell production” and the “number of NK cells detected” value ([1]; 20 μM added Day 2, analysed Day 9) was “reduction in the number of NK cells detected”. For the same compound, the “NK cell production relative to 'No drug' control” value ([1]; 5 or 10 μM added after Day 2) was “no significant difference”, the “production of NK cells in NK cell production assays increases” value ([1]; summary in Discussion, concentration not given) was “more than 2 fold” and the “toxicity to human CD34+ cells” value (Human CD34+ cells; 5 μM) was “not toxic”. For the same compound, the “toxicity to human CD34+ cells” value (Human CD34+ cells; 10 μM) was “completely toxic”.
